# Measured values: patent US9421204B2, “Oligomer modified diaromatic substituted compounds” (priority 2010, dated 2016)
# pEC50, pIC50: −log10 of the molar value. Like-named read-outs stand apart in the source and are kept apart here.
# Experiments:
# A17K103N/Y181C = test: Anti-HIV cytoprotection assay, drug resistant A17; assay type: cell-based; conditions: HIV-1 strain A17K103N/Y181C, CEM-SS cells
# Description: (§1) Cells were prepared as described above. Virus Preparation—The wild type NL4-3 and drug resistant A17 viruses were obtained from the NIH AIDS Research and Reference Reagent Program and stock virus pools were produced in CEM-SS cells. Amino acid substitutes of L100I, Y181C and P23L were introduced by site-directed mutagenesis into pN L4-3 and stock virus pools were produced in CEM-SS cells. A pretitered aliquot of virus was removed from the freezer (−80° C.) and allowed to thaw slowly to room temperature in a biological safety cabinet.
# (§2) Plate Format—Each plate contains cell control wells (cells only), virus control wells (cells plus virus), drug toxicity wells (cells plus drug only), drug colorimetric control wells (drug only) as well as experimental wells (drug plus cells plus virus). Samples were tested in triplicate with eleven half-log dilutions per compound. Efficacy and Toxicity XTT—Following incubation at 37° C. in a 5% CO2 incubator, the test plates were stained with the tetrazolium dye XTT (2,3-bis(2-methoxy-4-nitro-5-sulfophenyl)-5-[(phenylamino)carbonyl]-2H-tetrazolium hydroxide). XTT-tetrazolium was metabolized by the mitochondrial enzymes of metabolically active cells to a soluble formazan product, allowing rapid quantitative analysis of the inhibition of HIV induced cell killing by anti-HIV test substances. XTT solution was prepared daily as a stock of 1 mg/mL in RPMI1640. Phenazine methosulfate (PMS) solution was prepared at 0.15 mg/mL in PBS and stored in the dark at −20° C. XTTIPMS stock was prepared immediately before use by adding 40 μL of PMS per ml of XTT solution. Fifty microliters of XTT/PMS was added to each well of the plate and the plate was re-incubated for 4 hours at 37° C. Plates were sealed with adhesive plate sealers and shaken gently or inverted several times to mix the soluble formazan product and the plate was read spectrophotometrically at 450/650 nm with a Molecular Devices Vmax plate reader.
# (§3) Data Analysis—Raw data was collected from the Softmax Pro 4.6 software and imported into a Excel XLFit4 spreadsheet for analysis by four parameter curve fit calculations. Both antiviral activity and toxicity are calculated.
# [1] = Log P determination (Sirius GLpKa); assay type: physicochemical; conditions: Partition Log P, 25° C.; for logP: read-out: Log P
# Description: The Sirius GLpKa instrument is used to determine the pKa and Log P. A blank standardization has to be completed first and passed in order to conduct the compound experiments. The solutions used by the instrument for the blank titration include water, a pH solution, and a surfactant (TRITON X-100). The TRITON X-100 was purchased commercially from Sirus. The 0.5% solution of TRITON X-100 was used in the experiment. In a 1 L volumetric flask 5 mls of TRITON X-100 is added and MILLI Q water to volume. The vessels used by the instrument were filled to ⅓ of their volume with each solution. Therefore the assay tray contains one vessel for water, pH solution, and surfactant for the blank run. The temperature of the water bath for the instrument is 25° C. The blank is calculated as an average of three “good” experiments. The “good” was denoted by a green check mark next to the assay number in the computer software. Once the blank was run successfully the instrument was ready to conduct the experiments. An additional method has to be set up for the Log P determinations for each compound. The conjugates are weighed into vessels in the same manner as for the previous experiment, i.e., 10% of the molecular weight. The vessels are placed in the assay tray of the instrument. The experimental parameters are entered into the computer. These included sample weight, molecular weight, assay type (Partition Log P), number of assays (three), and pKa value of the parent drug from the previous experiment. The run was started. There are three measurements for each run that are averaged to obtain the final results from the data points collected in the calculation software. All runs were denoted as “good” by the green check mark next to the assay number.
# Wild Type RT = Wild Type RT (Human immunodeficiency virus type 1 group M subtype B, UniProt P04585); test: HIV-1 Reverse Transcriptase Inhibition Assay; assay type: biochemical
# Description: The following materials were removed from the freezer and were stored on wet ice (dGTP, ^32P, purified enzyme extract, rCdG, dGTP, DNA). Test compounds were evaluated at a high test of 100 μM diluted in dH2O and if the stock solution was turbid, 1:1000 Triton-X was added to the stock solution. Thirty microliters (30 μL) of each dilution was then transferred in duplicate to the appropriate well of a 96-well plate. The positive and negative control wells each received 30 μL of dH2O instead of the compound. A 2× buffer was prepared in the following manner: 125 μL 2M Tris pH 8.0, 250 μL 3M KCl, 80 μL 1 M MgC12, 10 μL 2 M DTT, 40 μL 25 U/mL rCdG, 100 μL 1 mM dGTP, 10 μL 800 Ci/mMol alpha ^32P:dG TP, and 4.4 mL dH2O. Fifty microliters (50 μL) of 2× buffer was added to every well of the plate. BSA was diluted 1:100 and Triton-X 1:1000 in dH2O and the enzyme was added to the mixture at a 1:400 dilution. Twenty microliters (20 μL) of the enzyme solution was added to all of the wells of the plate except the negative control wells. Distilled water was used instead of enzyme in these wells. The plate was incubated at 37° C. for 30 minutes. Following incubation, 10 μL of 10 mg/mL DNA (MB-grade fish sperm) was added to each well, followed by 150 μL of cold 10% TCA in each well. The plate was incubated at room temperature for approximately 15 minutes in order to allow for precipitation of the samples. Following the incubation the contents were transferred to the appropriate filter plate. The plate was placed on the vacuum manifold and pushed firmly to induce suction. Wells were rinsed with 200 μL of cold TCA. Again, the plate was pushed down firmly and vacuum suction was applied. Once all of the liquid was aspirated from the filter plate, it was removed from the manifold and residual liquid was blotted from the bottom of the plastic base. The filtered wells were separated from the plastic base and the wells were blotted on clean, absorbent paper. The filtered wells were pushed into the cassette and a sheet of Millipore multiscreen tape was placed on the bottom of a Wallace Microbeta cassette covering all of the holes. Twenty microliters (20 μL) of Wallace Supermix Scintillant was added to each well and the top of the wells were covered with a sheet of the multiscreen tape. The plate was read on the Wallace MicroBeta counter to measure incorporated ^32P.
# NL4-3 = test: Anti-HIV cytoprotection assay, wild type NL4-3; assay type: cell-based, HIV-1; conditions: for TI: HIV-1 strain NL4-3
# Description: as §1, §2, §3
# [2] = Human immunodeficiency virus 1, CEM-SS
# [3] = Human immunodeficiency virus 1, NL43, CEM-SS
Compound,pEC50 (A17K103N/Y181C; read-out: EC50),Log P [1],pIC50 (Wild Type RT; read-out: Wild Type RT IC50),TI (NL4-3),"pEC50 (NL4-3; HIV-1 strain NL4-3, CEM-SS cells, read-out: EC50)",pEC50 (A17K103N/Y181C; [2]),logP [1],pIC50 (Wild Type RT; Wild Type RT IC50),pEC50 (NL4-3; [3])
5-O-mPEG9-Delavirdine [mPEG9-O-Delavirdine],< 5.30,2.328,6.25,>5.6,6.05,–,–,–,–
"COCCOCCOCCOCCOc1ccc2[nH]c(C(=O)N3CCN(c4ncccc4NC(C)C)CC3)cc2c1 [mPEG4-O-Delavirdine, 5-O-mPEG4-Delavirdine]",–,–,–,>5.8,–,< 5.30,2.22,6.55,6.06
"COCCOCCOCCOCCOCCOCCOc1ccc2[nH]c(C(=O)N3CCN(c4ncccc4NC(C)C)CC3)cc2c1 [mPEG6-O-Delavirdine, 5-O-mPEG6-Delavirdine]",–,–,–,–,–,–,2.65,6.54,–
"COCCOCCOCCOc1ccc2[nH]c(C(=O)N3CCN(c4ncccc4NC(C)C)CC3)cc2c1 [mPEG3-O-Delavirdine, 5-O-mPEG3-Delavirdine]",–,–,–,>83.3,–,< 5.30,1.98,7.30,7.22
"COCCNc1ccc2[nH]c(C(=O)N3CCN(c4ncccc4NC(C)C)CC3)cc2c1 [5-mPEG1-NH-Delavirdine, 5-mPEG-NH-Delavirdine]",–,–,–,>50.0,–,< 6.00,–,6.60,7.70
"COCCOCCOCCOCCOCCOCCOCCOCCOc1ccc2[nH]c(C(=O)N3CCN(c4ncccc4NC(C)C)CC3)cc2c1 [mPEG8-O-Delavirdine, 5-O-mPEG8-Delavirdine]",–,–,–,–,–,–,2.58,6.31,–
COCCOCCNc1ccc2[nH]c(C(=O)N3CCN(c4ncccc4NC(C)C)CC3)cc2c1 [5-mPEG2-NH-Delavirdine],–,–,–,>12.5,–,< 6.00,–,6.24,7.10
"COCCOCCOCCOCCOCCOc1ccc2[nH]c(C(=O)N3CCN(c4ncccc4NC(C)C)CC3)cc2c1 [mPEG5-O-Delavirdine, 5-O-mPEG5-Delavirdine]",–,–,–,–,–,–,–,6.89,–
"COCCOCCOCCOCCOCCOCCOCCOc1ccc2[nH]c(C(=O)N3CCN(c4ncccc4NC(C)C)CC3)cc2c1 [mPEG7-O-Delavirdine, 5-O-mPEG7-Delavirdine]",–,–,–,–,–,–,2.73,6.15,–
